Assay results reported in ChEMBL document CHEMBL1121969, “Synthesis and antiviral properties of some 2'-deoxy-5-(fluoroalkenyl)uridines” (1982).
≈ marks a conversion by molar mass, not a printed value.

Each compound was assayed on Human alphaherpesvirus 1 (assay: Antiviral activity against various strains of Herpes Simplex virus type I). Conditions: read-out: ID50 (the source's name).
Type: functional

Row | Structure (SMILES) | IC50 [µg/mL]
1 | Nc1nc2c(ncn2COCCO)c(=O)[nH]1 [ACYCLOVIR] | 0.8 (≈ 3.55 µM)
2 | O=c1[nH]c(=O)n([C@H]2C[C@H](O)[C@@H](CO)O2)cc1/C=C/Br [BRIVUDINE] | 0.07 (≈ 0.21 µM)
3 | O=c1[nH]c(=O)n([C@H]2C[C@H](O)[C@@H](CO)O2)cc1C(F)=C(Cl)Cl | 26 (≈ 76.2 µM)
4 | Nc1ncnc2c1ncn2[C@@H]1O[C@H](CO)[C@@H](O)[C@H]1O [ADENOSINE] | 21 (≈ 78.6 µM)
5 | O=c1[nH]c(=O)n([C@H]2C[C@H](O)[C@@H](CO)O2)cc1/C(F)=C(\F)Cl.O=c1[nH]c(=O)n([C@H]2C[C@H](O)[C@@H](CO)O2)cc1C(F)=C(Cl)Cl | 24
6 | O=c1[nH]c(=O)n([C@H]2C[C@H](O)[C@@H](CO)O2)cc1I [IDOXURIDINE] | 4.4 (≈ 12.4 µM)
